This is an account of results in patent publication US20030216571A1, “Tricyclic compounds” (priority 1999, published 2003).

One series has as its target T1, Leukotriene D4 receptor (Cavia porcellus, UniProt Q2NNR5).
T1 construct: As a receptor sample, a lung cell membrane fraction from guinea pigs was used; from tissue; host or cells: lung membrane fraction of Hartley male guinea pigs
T1 sequence (Q2NNR5 1-340): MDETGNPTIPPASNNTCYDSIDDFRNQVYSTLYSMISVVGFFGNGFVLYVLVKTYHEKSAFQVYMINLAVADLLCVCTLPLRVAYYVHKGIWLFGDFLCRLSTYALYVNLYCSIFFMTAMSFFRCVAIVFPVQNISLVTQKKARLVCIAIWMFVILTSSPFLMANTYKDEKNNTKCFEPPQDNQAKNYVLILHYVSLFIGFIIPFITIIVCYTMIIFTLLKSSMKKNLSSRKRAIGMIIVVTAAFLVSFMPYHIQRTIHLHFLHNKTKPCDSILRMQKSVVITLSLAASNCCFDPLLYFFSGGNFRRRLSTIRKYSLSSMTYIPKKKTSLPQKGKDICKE
Nature of the series: Leukotriene D4 receptor binding test. The settings on record: binding inhibition constant (Ki) vs [3H] LTD4 0.2 nM; lung cell membrane fraction from guinea pigs; 25° C. for 30 minutes; read-out: pKi value (converted). The protocol:
Leukotriene D4 Receptor Binding Test
As a receptor sample, a lung cell membrane fraction from guinea pigs was used. Preparation of the membrane fraction was carried out according to the method of Ahn et al. (Eur. J. Pharmacol., 127, 153-155 (1986)). Lungs of Hartley male guinea pigs (400 to 500 g body weight, Nippon SLC Co.) were extracted, and perfused with a physiological saline, and then, adding 10 mM of PIPES, 10 mM of MgCl2 and 10 mM of CaCl2 buffer (pH 7.5) to the lung tissue and the mixture was homogenized. This homogenate was centrifuged at 70,000 xg for 10 minutes to obtain a membrane fraction.
Leukotriene D4 (LTD4) recepter binding test was carried out according to the method of Aharony, et al. (J. Pharmacol. Expl.Ther., 243, 921-926 (1987)). To 0.42 mg of the receptor sample were added 10 mM of PIPES, 10 mM of MgCl2 and 10 mM of CaCl2 buffer (pH 7.5) to make the total amount of 480 μl, and 10 μl of [^3H] LTD4 (NEN Life Science Products Co.) and 10 μl of a Test compound in dimethylsulfoxide were added to the mixture, and the resulting mixture was incubated at 25° C. for 30 minutes. The mixtures thus incubated were filtered through a glass fiber filter (Whatman Co., GF/C) using cell harvester (Brandel Co., M-30R). The filter were washed with 10 mM of Tris. and 100 mM of NaCl buffer (pH 7.5), and 5 ml of a liquid scintillator (NACALAI TESQUE INC., clearsol I), and radioactivity was measured by a liquid scintillation analyzer (Packard Co., 2000CA). When a dissociation constant (Kd) of LTD4 was to be obtained, [^3H] LTD4 with 0.03 to 0.5 nM was used, and 1 μM of non-radioactive LTD4 was added. When a binding inhibition constant (Ki) of the Test compound is to be meaured, [^3H] LTD4 with 0.2 nM was used. Kd and Ki are calculated according to the method of Bennett et al. (Neurotransmitter Receptor Binding, 2nd ed., edited by H. I. Yamamura et al., pp. 61-89, Raven Press (1985)).

Series [1] concerns Leukotriene D4 induced respiratory constriction. Nature of the series: Leukotriene D4 induced respiratory constriction test. Type of series: in vivo. The settings on record: p.o. 1 hr before i.v. LTD4; anesthetized Hartley male guinea pigs; respiratory inner pressure. As for the experimental part:
Leukotriene D4 Induced Respiratory Constriction Test
Respiratory constriction was measured by modifying the method of Konzett and Rossler (Arch. Exp. Pathol. Pharmakol., 195, pp. 71-74 (1940)). Hartley male guinea pigs (400 to 500 g body weight, Nippon SLC Co.) were anesthetized with pentobarbital (50 mg/kg, s.c.), and a cannula was inserted into the trachea to carry out artificial ventilation with an artificial ventilator (manufactured by Harvard Co., Model 683). An inner pressure of the respiratory tract was measured by a differential pressure transducer (Nihon Koden, TP-603T) connected to the respiratory cannula and it is used as an index of respiratory constriction.
LTD4 (0.03, 0.06, 0.13, 0.25, 0.5, 1 and 2 μg/kg, Sigma Co.) was intravenously administered from a cannula inserted into the right jugular vein from a low dose with an interval of 5 minutes to cause a respiratory constriction reaction and an increased amount of a respiratory inner pressure was measured. Test compound was suspended in 0.5% sodium carboxymethyl cellulose aqueous solution, and orally administered 1 hour before administration of LTD4. Animals were fasted for 24 hours before administration of the Test compound.
A2=(Dose of Compound administered)/{(ED50 of group to which Compound was added)/(ED50 of control group)−1}

As to `O=C([O-])CC1(CSC2c3ccccc3COc3ccc(/C=C/c4ccc5c(F)c(F)c(F)cc5n4)cc32)CC1.[Na+]` (stereo not drawn) [Example 35 (b), Sodium {1-[[2-[(E)-2-(5,6,7-trifluoro-2-quinolinyl)ethenyl]-6,11-dihydrodibenz[b,e]oxepin-11-yl]thiomethyl]cyclopropyl}acetate], the melting point lay within 195 to 198 °C. Besides, the Ki at Leukotriene D4 receptor was 0.398 nM. In series [1], the “A2 (dose of Test compound required for shifting two-times the LTD4 dose-reaction curve of control group to higher dose side)” value is 6.6 µg/kg.
The like results for `O=C([O-])CCSC1c2ccccc2CCc2ccc(/C=C/c3ccc4cc(F)c(F)cc4n3)cc21.[Na+]` (stereo not drawn) [Example 40, Sodium 3-{[3-[(E)-2-(6,7-difluoro-2-quinolinyl)ethenyl]-10,11-dihydro-5H-dibenz[a,d]cyclohepten-5-yl]thio}propionate] were, in that order, 179 to 182 °C, 0.794 nM and 8.8 µg/kg.
In the same order, the values of `C[C@H](CSC1c2ccccc2COc2ccc(/C=C/c3ccc4cc(F)c(F)cc4n3)cc21)C(=O)[O-].[Na+]` (stereo partly drawn) [Example 43, Sodium 3-{[2-[(E)-2-(6,7-difluoro-2-quinolinyl)ethenyl]-6,11-dihydrodibenz[b,e]oxepin-11-yl]thio}-2-(S)-methyl-propionate] are 193 to 216 °C, 0.126 nM and 1.3 µg/kg.
The like results for `C[C@@H](CSC1c2ccccc2COc2ccc(/C=C/c3ccc4cc(F)c(F)cc4n3)cc21)C(=O)[O-].[Na+]` (stereo partly drawn) [Example 44, Sodium 3-{[2-[(E)-2-(6,7-difluoro-2-quinolinyl)ethenyl]-6,11-dihydrodibenz[b,e]oxepin-11-yl]thio}-2-(R)-methylpropionate] were, in that order, 196 to 220 °C, 0.2 nM and 5 µg/kg.
Compound `O=C([O-])CCSC1c2cc(/C=C/c3ccc4cc(F)c(F)cc4n3)ccc2COc2ccccc21.[Na+]` (stereo not drawn) [Example 54 (b), Sodium 3-{[9-[(E)-2-(6,7-difluoro-2-quinolinyl)ethenyl]-6,11-dihydrodibenz[b,e]oxepin-11-yl]thio}propionate] came in with a melting point of over 300 °C. Further, the Ki on Leukotriene D4 receptor was 0.126 nM. The “A2 (dose of Test compound required for shifting two-times the LTD4 dose-reaction curve of control group to higher dose side)” value in series [1] is 2.3 µg/kg.

For orientation: melting point means the temperature of the solid-liquid transition.
